Activity calls are given as the source filed them. The calls are words filed in the database; no cut-off is given here.
Columns and labels:
NCI-H460 = test: Growth inhibition of human NCI-H460 cells by sulforhodamine B assay; type: functional
DU-145 = test: Growth inhibition of human DU145 cells by sulforhodamine B assay; type: functional
SK-OV-3 = test: Growth inhibition of human SKOV3 cells by sulforhodamine B assay; type: functional
HUVEC [1] = test: Vascular disrupting activity in HUVEC assessed as disruption of capillary-like network of tubules at 0.01 to 1 uM after 2 hrs by matrigel assay; type: functional, cell-based; conditions: Homo sapiens
Tubulin (Homo sapiens) [2] = biological target: T1, Tubulin (Homo sapiens) (UniProt P68371+Q9H4B7+P0DPH7+P68366+Q13509+Q71U36+P04350+Q3ZCM7+P07437+P68363+Q9BQE3+Q6PEY2+Q13885+Q9BVA1+Q9BUF5); test: Displacement of [3H]-Colchicine from tubulin (unknown origin) at 5 uM relative to control; type: protein-complex assay
Tubulin (Homo sapiens) [3] = biological target: T1, Tubulin (Homo sapiens); test: Displacement of [3H]-Colchicine from tubulin (unknown origin) at 1 uM relative to control; type: protein-complex assay
HUVEC [4] = test: Vascular disrupting activity in HUVEC assessed as disruption of capillary-like network of tubules after 2 hrs by matrigel assay; type: functional, cell-based; conditions: Homo sapiens
HUVEC [5] = test: Vascular disrupting activity in HUVEC assessed as cell rounding at 0.1 to 1 uM after 2 hrs by matrigel assay; type: functional, cell-based; conditions: Homo sapiens
Tubulin = Tubulin (Bos taurus, UniProt Q6B856+Q862L2+Q862F3); test: Inhibition of bovine brain tubulin polymerization after 20 mins by spectrophotometric analysis
HUVEC [6] = test: Vascular disrupting activity in HUVEC assessed as disruption of capillary-like network of tubules at 0.01 to 0.1 uM after 2 hrs by matrigel assay; type: functional, cell-based; conditions: Homo sapiens
HUVEC [7] = test: Vascular disrupting activity in HUVEC assessed as disruption of capillary-like network of tubules at 1 uM after 2 hrs by matrigel assay; type: functional, cell-based; conditions: Homo sapiens
HUVEC [8] = test: Vascular disrupting activity in HUVEC assessed as cell rounding at 1 uM after 2 hrs by matrigel assay; type: functional, cell-based; conditions: Homo sapiens

Row | GI50 (NCI-H460) [nM] | GI50 (DU-145; Homo sapiens, DU-145) [nM] | GI50 (SK-OV-3) [nM] | Compound | inhibition (Tubulin (Homo sapiens) [2]) [%] | IC50 (Tubulin) [nM] | GI50 (DU-145) [nM] | also measured
1 | 2.8 | 0.54 | 0.42 | COc1ccc(/C=C\c2cc(OC)c(OC)c(OC)c2)cc1O [COMBRETASTATIN A4] | – | – | – | Activity (HUVEC [1]): Active
2 | 15 | 33 | 38 | COc1ccc(/C=C\c2cc(OC)c(OC)c(OC)c2)c(O)c1O [COMBRETASTATIN A-1] | – | – | – | –
3 | – | – | – | COc1ccc2c(c1N)CCCC=C2c1cc(OC)c(OC)c(OC)c1 [listing 1 of 3 here] | 91 | – | – | inhibition (Tubulin (Homo sapiens) [3]): 65%; Activity (HUVEC [4]): Dose-dependent effect; Activity (HUVEC [5]): Active
4 | 216 | 211 | 152 | COc1cc(C2=CCCCc3c2ccc(OC)c3[N+](=O)[O-])cc(OC)c1OC | 63 | 2500 | – | Activity (HUVEC [6]): inactive; Activity (HUVEC [7]): Active; Activity (HUVEC [8]): Active
5 | – | – | – | COc1ccc2c(c1N)CCCC=C2c1cc(OC)c(OC)c(OC)c1 [listing 2 of 3 here] | – | – | 3.53 | –

Row | Compound | GI50 (NCI-H460) [nM] | GI50 (DU-145; Homo sapiens, DU-145) [nM] | GI50 (SK-OV-3) [nM] | inhibition (Tubulin (Homo sapiens) [2]) [%] | IC50 (Tubulin) [nM] | GI50 (DU-145) [nM] | also measured
6 | COc1ccc2c(c1N)CCCC=C2c1cc(OC)c(OC)c(OC)c1 [listing 3 of 3 here] | – | – | 0.0329 | – | 1200 | 1.11 | –

From ChEMBL document CHEMBL3217721 (Medchemcomm, 2012)
